# According to article PMC10005332, “It Takes Two to Tango, Part II: Synthesis of A-Ring Functionalised Quinones Containing Two Redox-Active Centres with Antitumour Activities” (Molecules, 2023):
# Read-outs that look alike come from different tables or passages of the source.
# Tests used:
# [1] = tested on: K-562 (human chronic myeloid leukaemia); assay: MTT cytotoxicity assay, K-562; assay type: cell-based; conditions: for IC50: Homo sapiens, K562, MTT, 72 h exposure, three independent experiments, read-out: Cytotoxic activity IC50 (95% CI) K-562; for Selectivity index K-562: ratio of cytotoxicity L929 / K-562
# Experimental: (§1) In this study, the IC50 was obtained in micromolar concentrations, using the colourimetric MTT (3-(4,5-dimethylthiazol-2-yl)-2,5-diphenyl tetrazolium bromide)) assay, and doxorubicin was used as the positive control. […] The activity against the non-tumoural murine fibroblast cell line L929 was also evaluated in order to study the cytotoxicity behaviour of each compound and to understand their respective relative selectivity. The selectivity index was obtained using the ratio of measured cytotoxicity between the L929 cell line and each of the cancer cell lines, and the results are presented in Table 2.
# (§2) The in vitro cytotoxicity activity of the compounds was evaluated by the colorimetric MTT (3-(4,5-dimethylthiazol-2-yl)-2,5-diphenyl tetrazolium bromide)) assay using the following tumor cell lines: HCT-116 (colon carcinoma), PC3 (prostate), SNB-19 (glioblastoma), K-562 (myelogenous leukaemia), HL-60 (human promyelocytic leukaemia), B16 (murine melanoma), A549 (human lung carcinoma), KG1 (human acute myeloid leukaemia), and RAJI (human Burkitt’s lymphoma), which were provided by the National Cancer Institute (Bethesda, MD, USA). The L929 cell line (mouse fibroblast L cells NCTC clone 929) employed in this study as a control cell line was obtained from the American Type Culture Collection (Manassas, VA, USA). The cell lines (Table S4) were maintained in flasks containing RPMI 1640 or DMEM medium supplemented with 10% bovive fetal sérum, 100 U/mL penicillin, and 100 μg/mL streptomycin at 37 °C and in 5% CO2 atmosphere. The compounds tested were dissolved in DMSO. Doxorubicin served as the positive control. Cell treatments were performed with three replicates and the cells were mycoplasma free. After 72 h incubation, 100 μL of MTT solution (0.5 mg/mL) was added to each well, and the cells were incubated for 3 h. The supernatant was removed and 100 μL of DMSO was added and the absorbance at 595 nm was measured using Victor Nivo Multimode plate reader (PerkinElmer, Waltham, MA, USA). The absorbances obtained were used to calculate the IC50 values by nonlinear regression employing appropriate statistical software.
# (§3) The in vitro cytotoxicity activity of compounds was evaluated by the colorimetric MTT (3-(4,5-dimethylthiazol-2-yl)-2,5-diphenyl tetrazolium bromide)) assay using tumor cell lines: HCT-116 (colon carcinoma), PC3 (prostate), SNB-19 (glioblastoma), K-562 (myelogenous leukaemia), HL-60 (human promyelocytic leukaemia), B16 (murine melanoma), A549 (human lung carcinoma), KG1 (human acute myeloid leukaemia) and RAJI (human Burkitt's lymphoma), which were provided by the National Cancer Institute (Bethesda, MD, USA). The L929 cell line (mouse fibroblast L cells NCTC clone 929) employed in this study as a control cell line was obtained from the American Type Culture […]
# (§4) Collection (Manassas, VA, USA). Cell lines (Table 01) were maintained in flasks containing RPMI 1640 or DMEM medium supplemented with 10% bovive fetal sérum, 100 U/mL penicillin, and 100 μg/mL streptomycin at 37 °C and 5% CO2 atmosphere.
# (§5) Compounds tested were dissolved in DMSO. Doxorubicin served as positive control. Cell treatments were performed with three replicates and cells were mycoplasma-free. After 72 h incubation, 100 μL of MTT solution (0.5 mg/mL) was added to each well, and cells were incubated for 3 h. The supernatant was removed and 100 μL of DMSO was added and the absorbance at 595 nm was measured using Victor Nivo Multimode plate reader
# [2] = tested on: RAJI (human Burkitt’s lymphoma); assay: MTT cytotoxicity assay, RAJI; assay type: cell-based; conditions: for IC50: MTT, 72 h exposure, three independent experiments, read-out: Cytotoxic activity IC50 (95% CI) RAJI; for Selectivity index RAJI: ratio of cytotoxicity L929 / RAJI
# Experimental: as §1, §2, §3, §4, §5
# [3] = tested on: HCT-116 (human colorectal carcinoma); assay: MTT cytotoxicity assay, HCT-116; assay type: cell-based; conditions: for IC50: Homo sapiens, HCT-116, 72 h, MTT, 72 h exposure, three independent experiments, read-out: Cytotoxic activity IC50 (95% CI) HCT-116; for Selectivity index HCT-116: ratio of cytotoxicity L929 / HCT-116
# Experimental: as §1, §2, §3, §4, §5
# [4] = tested on: B16 (murine melanoma); assay: MTT cytotoxicity assay, B16; assay type: cell-based; conditions: for IC50: Mus musculus, MTT, 72 h exposure, three independent experiments, read-out: Cytotoxic activity IC50 (95% CI) B16; for Selectivity index B16: ratio of cytotoxicity L929 / B16
# Experimental: as §1, §2, §3, §4, §5
# [5] = tested on: SNB-19 (human astrocytoma); assay: MTT cytotoxicity assay, SNB-19; assay type: cell-based; conditions: for IC50: Homo sapiens, SNB-19, MTT, 72 h exposure, three independent experiments, read-out: Cytotoxic activity IC50 (95% CI) SNB-19; for Selectivity index SNB-19: ratio of cytotoxicity L929 / SNB-19
# Experimental: as §1, §2, §3, §4, §5
# [6] = tested on: KG1 (human acute myeloid leukaemia); assay: MTT cytotoxicity assay, KG1; assay type: cell-based; conditions: for IC50: Homo sapiens, MTT, 72 h exposure, three independent experiments, read-out: Cytotoxic activity IC50 (95% CI) KG1; for Selectivity index KG1: ratio of cytotoxicity L929 / KG1
# Experimental: as §1, §2, §3, §4, §5
# [7] = tested on: HL60 (human pro-myelocytic leukaemia); assay: MTT cytotoxicity assay, HL60; assay type: cell-based; conditions: for IC50: Homo sapiens, HL-60, 72 h, MTT, 72 h exposure, three independent experiments, read-out: Cytotoxic activity IC50 (95% CI) HL60; for Selectivity index HL60: ratio of cytotoxicity L929 / HL60
# Experimental: as §1, §2, §3, §4, §5
# [8] = tested on: PC3 (human prostate adenocarcinoma); assay: MTT cytotoxicity assay, PC3; assay type: cell-based; conditions: for IC50: Homo sapiens, MTT, 72 h exposure, three independent experiments, read-out: Cytotoxic activity IC50 (95% CI) PC3; for Selectivity index PC3: ratio of cytotoxicity L929 / PC3
# Experimental: as §1, §2, §3, §4, §5
# [9] = MTT cytotoxicity assay, L929 control line; assay type: cell-based, mouse; conditions: mouse, L929 fibroblast cells (non-tumoral control line), 72 h exposure, read-out: Cytotoxic activity IC50 (95% CI) L929
# Experimental: as §1, §2, §3, §4, §5
# [10] = tested on: A549 (human lung carcinoma); assay: MTT cytotoxicity assay, A549; assay type: cell-based; conditions: for IC50: Homo sapiens, A549, MTT, 72 h exposure, three independent experiments, read-out: Cytotoxic activity IC50 (95% CI) A549; for Selectivity index A549: ratio of cytotoxicity L929 / A549
# Experimental: as §1, §2, §3, §4, §5
SMILES,IC50 [1] [µM],"IC50 ([2]; Homo sapiens, Raji, 72 h) [µM]",IC50 [3] [µM],IC50 [4] [µM],Selectivity index B16 [4],IC50 [5] [µM],IC50 [6] [µM],IC50 [7] [µM],Selectivity index HL60 [7],IC50 [8] [µM],IC50 at 72 h [9] [µM],IC50 [10] [µM],Selectivity index RAJI [2],Selectivity index SNB-19 [5],Selectivity index KG1 [6],Selectivity index A549 [10],Selectivity index K-562 [1],Selectivity index HCT-116 [3],Selectivity index PC3 [8],IC50 [2] [µM]
"C#CCNC1=CC(=O)c2cccc(OCc3ccccc3)c2C1=O [Compound 18d, 8-benzyloxy-2-(prop-2-yn-1-ylamino)naphthalene-1,4-dione]",> 100,> 100,> 100,35.5,2.8,> 100,> 100,32,3.1,> 100,> 100,> 100,–,–,–,–,–,–,–,–
"COc1cccc2c1C(=O)C(NCc1cn(CC3CC4=C(O3)c3ccccc3C(=O)C4=O)nn1)=CC2=O (stereo not shown) [Compound 20c, 2-((4-(((8-methoxy-1,4-dioxo-1,4-dihydronaphthalen-2-yl)amino)methyl)-1H-1,2,3-triazol-1-yl)methyl)-2,3-dihydronaphtho[1,2-b]furan-4,5-dione]",> 100,37,> 100,44.1,2.3,49.6,39.4,38.3,2.6,> 100,> 100,24.5,2.7,2.0,2.5,4.1,–,–,–,–
"O=C1C(=O)c2ccccc2C2=C1CC(Cn1cc(CNC3=CC(=O)c4c(I)cccc4C3=O)nn1)O2 (stereo not shown) [Compound 20a, 2-((4-(((5-iodo-1,4-dioxo-1,4-dihydronaphthalen-2-yl)amino)methyl)-1H-1,2,3-triazol-1-yl)methyl)-2,3-dihydronaphtho[1,2-b]furan-4,5-dione]",5.56,2.8,5.47,4.19,1.3,8.5,25.3,2.84,2.0,9.79,5.59,15.3,2.0,0.7,0.2,0.4,1.0,1.0,0.6,–
"CC1(C)OC2=C(CC1Cn1cc(CNC3=CC(=O)c4c(I)cccc4C3=O)nn1)C(=O)C(=O)c1ccccc12 (stereo not shown) [Compound 21a, 3-((4-(((5-iodo-1,4-dioxo-1,4-dihydronaphthalen-2-yl)amino)methyl)-1H-1,2,3-triazol-1-yl)methyl)-2,2-dimethyl-3,4-dihydro-2H-benzo[h]chromene-5,6-dione]",5.03,5.71,2.69,0.96,1.9,2.93,4.2,1.02,1.8,6.19,1.86,2.76,0.3,0.6,0.4,0.7,0.4,0.7,0.3,–
"COc1cccc2c1C(=O)C(NCc1cn(C3C4=C(OC3(C)C)c3ccccc3C(=O)C4=O)nn1)=CC2=O (stereo not shown) [Compound 19c, 3-(4-(((8-methoxy-1,4-dioxo-1,4-dihydronaphthalen-2-yl)amino)methyl)-1H-1,2,3-triazol-1-yl)-2,2-dimethyl-2,3-dihydronaphtho[1,2-b]furan-4,5-dione]",3.06,0.9,1.6,1.74,5.3,8.19,4.77,1.07,8.6,3.5,9.17,3.06,9.9,1.1,1.9,3.0,3.0,5.7,2.6,0.93
"COc1cccc2c1C(=O)C(NCc1cn(CC3CC4=C(OC3(C)C)c3ccccc3C(=O)C4=O)nn1)=CC2=O (stereo not shown) [Compound 21c, 3-((4-(((8-methoxy-1,4-dioxo-1,4-dihydronaphthalen-2-yl)amino)methyl)-1H-1,2,3-triazol-1-yl)methyl)-2,2-dimethyl-3,4-dihydro-2H-benzo[h]chromene-5,6-dione]",5.3,1.22,4.85,4.57,1.2,4.92,1.32,2.28,2.5,5.09,5.6,4.78,4.6,1.1,4.2,1.2,1.1,1.2,1.1,–
"O=C1C(=O)c2ccccc2C2=C1CC(Cn1cc(CNC3=CC(=O)c4c(O)cccc4C3=O)nn1)O2 (stereo not shown) [Compound 20b, 2-((4-(((5-hydroxy-1,4-dioxo-1,4-dihydronaphthalen-2-yl)amino)methyl)-1H-1,2,3-triazol-1-yl)methyl)-2,3-dihydronaphtho[1,2-b]furan-4,5-dione]",12.8,2.49,7.22,4.52,6.1,9.47,23.3,5,5.5,10.2,27.6,18.9,11.1,2.9,1.2,1.5,2.2,3.8,2.7,–
